Source: the supplement of paper PMC10307832

How the values were obtained:
Experiment in all cases: relative viability (nuclei count vs DMSO), 5 days (fraction); higher = more cells survive
[1] = compound: CN(c1ncccc1CNc1nc(Nc2ccc3c(c2)CC(=O)N3)ncc1C(F)(F)F)S(C)(=O)=O + CC1(C)CCC(c2ccc(Cl)cc2)=C(CN2CCN(c3ccc(C(=O)NS(=O)(=O)c4ccc(N[C@H](CCN5CCOCC5)CSc5ccccc5)c(S(=O)(=O)C(F)(F)F)c4)cc3)CC2)C1 [Navitoclax] (partner 0.5 µM)
Summary of the method: (§1)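 One day after seeding in 1536-well plates, lung cancer cell lines were dosed by pin tool. Dosing was either single-drug or a fixed anchor-drug dose plus five library-drug doses (not always all listed) in √10 steps. After 5 days, nuclei were stained in one fix-and-stain step and counted on 4× images, and relative viability is the nuclei count of treated wells over that of vehicle wells, given as the median of duplicate plates.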

[2] = compound: CN(c1ncccc1CNc1nc(Nc2ccc3c(c2)CC(=O)N3)ncc1C(F)(F)F)S(C)(=O)=O + Cc1cc(Nc2cc(N3CCN(C)CC3)nc(Sc3ccc(NC(=O)C4CC4)cc3)n2)n[nH]1 [Tozasertib] (partner 0.1 µM)
Summary of the method: as §1

[3] = compound: CN(c1ncccc1CNc1nc(Nc2ccc3c(c2)CC(=O)N3)ncc1C(F)(F)F)S(C)(=O)=O + C[C@@H](Oc1cc(-c2cnn(C3CCNCC3)c2)cnc1N)c1c(Cl)ccc(F)c1Cl [Crizotinib] (partner 1 µM)
Summary of the method: as §1

[4] = compound: CN(c1ncccc1CNc1nc(Nc2ccc3c(c2)CC(=O)N3)ncc1C(F)(F)F)S(C)(=O)=O + O=C(CCCCCCC(=O)Nc1ccccc1)NO [Vorinostat] (partner 1 µM)
Summary of the method: as §1

Cell Line	relative viability ([1]; first compound 0.01 µM)	relative viability ([1]; first compound 0.03162 µM)	relative viability ([1]; first compound 0.1 µM)	relative viability ([1]; first compound 0.3162 µM)	relative viability ([1]; first compound 1 µM)	relative viability ([2]; first compound 0.01 µM)	relative viability ([2]; first compound 0.03162 µM)	relative viability ([2]; first compound 0.1 µM)	relative viability ([2]; first compound 0.3162 µM)	relative viability ([2]; first compound 1 µM)	relative viability ([3]; first compound 0.01 µM)	relative viability ([3]; first compound 0.03162 µM)	relative viability ([3]; first compound 0.1 µM)	relative viability ([3]; first compound 0.3162 µM)	relative viability ([3]; first compound 1 µM)	relative viability ([4]; first compound 0.01 µM)	relative viability ([4]; first compound 0.03162 µM)	relative viability ([4]; first compound 0.1 µM)	relative viability ([4]; first compound 0.3162 µM)	relative viability ([4]; first compound 1 µM)
COR-L 105	0.773	0.833	0.869	0.777	0.493	0.365	0.322	0.341	0.399	0.247	0.64	0.649	0.779	0.747	0.47	0.813	0.865	0.873	0.855	0.619
LK-2	1.04	1.03	1.02	0.809	0.773	0.201	0.163	0.174	0.169	0.182	0.248	0.215	0.254	0.21	0.192	0.215	0.314	0.269	0.218	0.309
NCI-H727	0.429	0.438	0.435	0.378	0.322	0.675	0.549	0.571	0.543	0.52	0.925	1.02	0.633	0.885	0.689	1.26	1.29	1.23	1.08	1.34
RERF-LC-KJ	0.966	1.05	0.862	0.956	0.693	0.468	0.466	0.467	0.514	0.348	0.841	0.823	0.85	0.779	0.86	0.643	0.78	0.692	0.728	0.603
NCI-H2023	0.998	1.1	0.985	0.938	0.837	0.377	0.403	0.368	0.299	0.229	0.679	0.766	0.682	0.585	0.537	0.636	0.826	0.666	0.709	0.487
NCI-H322M	1.3	1.34	–	1.51	1.26	0.505	0.504	0.491	0.504	0.472	0.902	0.948	–	0.953	0.892	0.883	0.875	0.916	0.97	0.98
NCI-H1666	1.1	0.986	0.906	0.795	0.57	0.606	0.615	0.514	0.725	0.362	0.968	0.951	0.781	0.596	0.642	1.07	0.94	0.926	0.758	0.767
SW 900	–	–	–	–	–	0.547	0.629	0.543	0.495	0.446	–	–	–	–	–	0.535	0.511	0.594	0.661	0.562
